Our source for the EC50 and IC50 values is US10981893B2, “Therapeutic inhibitory compounds” (Attune Pharmaceuticals, Inc., priority 2015, dated 2021).

pEC50, pIC50: −log10 of the molar value.

kallikrein in human plasma, sequence (P03952 391-638 limits assumed): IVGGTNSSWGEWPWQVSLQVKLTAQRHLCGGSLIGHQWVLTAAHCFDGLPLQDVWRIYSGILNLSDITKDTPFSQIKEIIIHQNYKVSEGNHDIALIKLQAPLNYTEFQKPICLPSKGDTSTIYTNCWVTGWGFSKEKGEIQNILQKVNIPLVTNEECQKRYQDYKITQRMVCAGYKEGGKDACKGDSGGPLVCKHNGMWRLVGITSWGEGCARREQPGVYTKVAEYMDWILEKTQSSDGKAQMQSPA
kallikrein in human plasma, sequence (P03952 20-390 partner limits assumed): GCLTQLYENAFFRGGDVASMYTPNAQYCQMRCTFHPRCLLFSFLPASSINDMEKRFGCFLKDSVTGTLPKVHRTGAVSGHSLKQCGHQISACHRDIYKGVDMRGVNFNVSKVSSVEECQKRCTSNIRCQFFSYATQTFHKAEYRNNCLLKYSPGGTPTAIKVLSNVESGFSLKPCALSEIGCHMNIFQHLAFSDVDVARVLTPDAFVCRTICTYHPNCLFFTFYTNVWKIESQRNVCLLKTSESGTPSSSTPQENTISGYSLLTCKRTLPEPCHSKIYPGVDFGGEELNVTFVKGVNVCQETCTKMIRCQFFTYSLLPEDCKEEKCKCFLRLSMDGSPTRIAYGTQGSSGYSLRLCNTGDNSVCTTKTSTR

The first experiment has as its target kallikrein in human plasma (Homo sapiens (Human), UniProt P03952). Put plainly: In vitro cellular assay / contact assay: kallikrein activity in ellagic acid-activated human plasma (Z-FR-2-AMC substrate). It is filed as biochemical. The following applies: human plasma activated with ellagic acid, 37° C. The procedure: The ability of the compounds disclosed herein to inhibit cellular kallikrein activity was quantified and the respective EC50 value was determined.
Plasma kallikrein inhibitor C1NH (Athens Research & Technology, Cat #16-16-031509); Ellagic acid (Sigma, E2250); Substrate Z—FR-2-AMC (GL Biochem, Cat #55352); Nunc™ 96-Well Polypropylene MicroWell™ Plates (Nunc, Cat #267342)
All dilutions were prepared in an assay buffer comprising 50 mM Tris-HCl pH 7.2, 150 mM NaCl, and 0.01% Triton X-100.
Four fold serial dilutions were prepared from a 107.53 μM plasma kallikrein inhibitor C1NH stock solution, to yield ten solutions with concentrations between 20 μM and […]. Similarly, four fold serial dilutions were prepared from 10 mM stock solutions of various test compounds, to yield ten solutions with concentrations between 4 mM and 0.015 μM. The ten solutions of the test compounds, prepared by serial dilution, were further diluted 50-fold in the assay buffer.
Human plasma is thawed on ice and centrifuged for 15 min at 4° C. to remove platelets. A 1 mM stock solution of ellagic acid is diluted to 8 μM and mixed with human plasma, after removing platelets, at a ratio of 1:0.8. The mixture of human plasma and ellagic acid was further diluted 32-fold in the assay buffer, to yield the final mixture for use in the inhibition assay.
A 22.5 μL volume of the final mixture of human plasma and ellagic acid was added to a 96-well microwell plate and the plate was incubated for 15 min at 37° C.
The test compounds at various concentrations, also prepared by serial dilutions as described above, are added to the test wells. The volume of test compound added to each test well was 12.5 μL, to yield final concentrations of 20 μM, 5 μM, 1.25 μM, 312.5 nM, 78.125 nM, 19.531 nM, 4.883 nM, 1.221 nM, 0.305 nM, and 0.076 nM. Each test compound concentration was tested in duplicates.
In addition to the inhibitor control and test wells, the 96 well assay plate includes positive control wells which contained the mixture of human plasma and ellagic acid without C1NH inhibitor or test compounds, and background wells which contained neither the mixture of human plasma and ellagic acid nor the test compounds. The total volume of liquid in positive control and background wells was brought up to 35 μL, using the assay buffer.
The assay plate containing C1NH inhibitors and test compounds mixed with human plasma and ellagic acid and appropriate controls was incubated at 37° C. for 5 min. A 10 mM stock solution of substrate Z—FR-2-AMC was diluted to 133.2 μM in the assay buffer, and 15 μL of the diluted substrate was added to each well, to yield a final substrate concentration of 40 μM in each well. […]
The enzyme reaction was quantified by immediate kinetic reading of the assay plate using excitation/emission wavelengths of 330 nm/440 nm respectively. Fluorescence intensity was recorded for 60 min, using a time interval of 43 sec.
The inhibition activity of the test compounds were evaluated using the IC50 values, calculated according to the dose-response curve of the test compounds, fitted using the “log(inhibitor)-response(variable slope)” equation in GraphPadPrism software (GraphPad Software, Inc.).
The percentage inhibition was calculated using the following equation:
[formula] where, Mean(BG) is the average value of the fluorescence intensity of the background wells and Mean(PC) is the average value of the fluorescence intensity of the positive control wells. […]
Take `Cc1cc(N)nc(C)c1CNC(=O)c1ccc(=O)n(Cc2ccc3ncc(Cl)cc3c2)c1` [Example 21, N-((6-amino-2,4-dimethylpyridin-3-yl)methyl)-1-((3-chloroquinolin-6-yl)methyl)-6-oxo-1,6-dihydropyridine-3-carboxamide]: the pEC50 was no less than 7.00.

The target in the next experiment is human Plasma Kallikrein (Homo sapiens (Human), UniProt P03952). Put plainly: In vitro enzyme inhibition of human plasma kallikrein (Pro-Phe-Arg-AMC cleavage). Type of experiment: biochemical. The following applies: PFR-AMC substrate, 37° C., read-out: hPK IC50. The protocol: The ability of the compounds disclosed herein to inhibit human plasma kallikrein activity was quantified according to the procedures below.
human Plasma Kallikrein, sequence (P03952 391-638 limits assumed): as the sequence (P03952 391-638 limits assumed) above
human Plasma Kallikrein, sequence (P03952 20-390 partner limits assumed): as the sequence (P03952 20-390 partner limits assumed) above
A 10 mM solution of the test compound was made in DMSO. This solution was serially diluted 1:5 in DMSO to yield 2000, 400, 80, 16, 3.2, 0.64, 0.128, 0.0256 and 0.00512 μM compound test solutions. A control tube containing only DMSO is included. 16 μL of each compound test solution was combined with 384 μL of assay buffer (50 mM Tris-HCl pH 7.5, 150 mM NaCl, 0.01% Triton X-100) to yield a “4× test compound buffer stock”.
Separately, a 40 nM solution of human Plasma Kallikrein (Abcam) and a 93.6 μM solution Pro-Phe-Arg-AMC (Bachem) were made using assay buffer. These solutions are hereby refereed to as 4×hPK and 2×PFR-AMC, respectively.
60 μL of each 4× test compound buffer stock was combined with 60 μL of 4× hPK to yield 120 μL of “2× test compound buffer stock/2×hPK”. 50 μL was removed from this mixture and placed into duplicate wells on a Microfluor 1 Black U-bottom microtiter plate (Thermo Scientific). This plate was incubated for 5 minutes at 37° C. To each well, 50 μL of pre-warmed 2×PFR-AMC was added to start the enzymatic reaction. Cleavage of PFR-AMC was monitored in a Biotek Synergy H4 reader set at 37° C. Readings are taken every 43 seconds for 1 hour. The highest mean velocity over 20 reads (˜15 minutes) is used to calculate the IC50. The IC50 is calculated using the Gen5 (Biotek Instruments).
The ability of the compounds in Table 1 to inhibit human plasma kallikrein activity was determined and the data is shown in Table 3.
For the compound `O=C(NCc1n[nH]c2ccc(Cl)cc12)c1cncc(Cc2ccccc2C(F)(F)F)c1` [Example 1, N-((5-chloro-1H-indazol-3-yl)methyl)-5-(2-(trifluoromethyl)benzyl)nicotinamide], the pIC50 was 5.00 to 6.00.

Regarding `N#Cc1ccc(Cc2cncc(C(=O)NCc3n[nH]c4ccc(Cl)cc34)c2)cc1` [Example 2, N-((5-chloro-1H-indazol-3-yl)methyl)-5-(4-cyanobenzyl)nicotinamide], the pIC50 was 5.00 to 6.00.

On to `O=C(NCc1n[nH]c2ccc(Cl)cc12)c1cncc(Cc2ccc(C(F)(F)F)cc2)c1` [Example 3, N-((5-chloro-1H-indazol-3-yl)methyl)-5-(4-(trifluoromethyl)benzyl)nicotinamide], for which the pIC50 was 5.00 to 6.00.

`Cc1ccc(Cc2cncc(C(=O)NCc3n[nH]c4ccc(Cl)cc34)c2)cc1` [Example 4, N-((5-chloro-1H-indazol-3-yl)methyl)-5-(4-methylbenzyl)nicotinamide]: the pIC50 is 5.00 to 6.00.

With `O=C(NCc1n[nH]c2ccc(Cl)cc12)c1cncc(Cc2ccccc2)c1` [Example 5, 5-benzyl-N-((5-chloro-1H-indazol-3-yl)methyl)nicotinamide], the pIC50 is 5.00 to 6.00.

For the compound `NC(=O)c1ccccc1Cc1cncc(C(=O)NCc2n[nH]c3ccc(Cl)cc23)c1` [Example 6, 5-(2-carbamoylbenzyl)-N-((5-chloro-1H-indazol-3-yl)methyl)nicotinamide], the pIC50 is 5.00 to 6.00.

In the case of `N#Cc1cnn(Cc2cncc(C(=O)NCc3cc4c(Cl)c[nH]c4cc3F)c2)c1` [Example 7, N-((3-chloro-6-fluoro-1H-indol-5-yl)methyl)-5-((4-cyano-1H-pyrazol-1-yl)methyl)nicotinamide], the pIC50 is 5.00 to 6.00.

`NC(=O)c1cnn(Cc2cncc(C(=O)NCc3cc4c(Cl)c[nH]c4cc3F)c2)c1` [Example 8, 5-((4-carbamoyl-1H-pyrazol-1-yl)methyl)-N-((3-chloro-6-fluoro-1H-indol-5-yl)methyl)nicotinamide]: the pIC50 was less than 5.00.

In the case of `CC(=O)N(Cc1ccn(Cc2cc(C(=O)NCc3cc4c(Cl)c[nH]c4cc3F)ccn2)n1)C1CC1` [Example 9, N-((3-chloro-6-fluoro-1H-indol-5-yl)methyl)-2-((3-((N-cyclopropylacetamido)methyl)-1H-pyrazol-1-yl)methyl)isonicotinamide], the pIC50 is less than 5.00.

Turning to `NC(=O)C(NC(=O)c1cncc(Cc2ccc(Cn3ccccc3=O)cc2)c1)c1n[nH]c2ccc(Cl)cc12` (stereo not drawn) [Example 11, N-(2-amino-1-(5-chloro-1H-indazol-3-yl)-2-oxoethyl)-5-(4-((2-oxopyridin-1(2H)-yl)methyl)benzyl)nicotinamide], the negative-log IC50 (pIC50) is 5.00 to 6.00.

With `O=C(NC(C(=O)O)c1n[nH]c2ccc(Cl)cc12)c1cncc(Cc2ccc(Cn3ccccc3=O)cc2)c1` (stereo not drawn) [Example 12, 2-(5-chloro-1H-indazol-3-yl)-2-(5-(4-((2-oxopyridin-1(2H)-yl)methyl)benzyl)nicotinamido)acetic acid], the pIC50 is 5.00 to 6.00.

As for `NC(=O)c1ccc(CNC(=O)c2cncc(Cc3ccc(Cn4ccccc4=O)cc3)c2)cc1` [Example 14, N-(4-carbamoylbenzyl)-5-(4-((2-oxopyridin-1(2H)-yl)methyl)benzyl)nicotinamide], the pIC50 was 5.00 to 6.00.

Consider `O=C(NCc1ccc(Cl)cc1)c1cncc(Cc2ccc(Cn3ccccc3=O)cc2)c1` [Example 15, N-(4-chlorobenzyl)-5-(4-((2-oxopyridin-1(2H)-yl)methyl)benzyl)nicotinamide], for which the pIC50 was 5.00 to 6.00.

With `COc1ccc(CNC(=O)c2cncc(Cc3ccc(Cn4ccccc4=O)cc3)c2)cc1` [Example 16, N-(4-methoxybenzyl)-5-(4-((2-oxopyridin-1(2H)-yl)methyl)benzyl)nicotinamide], the pIC50 was 5.00 to 6.00.

On to `O=C(NCc1cc2c(Cl)c[nH]c2cc1F)c1ccc(=O)n(CC23CC(Cn4ccccc4=O)(C2)C3)c1` [Example 17, N-((3-chloro-6-fluoro-1H-indol-5-yl)methyl)-6-oxo-1-((3-((2-oxopyridin-1(2H)-yl)methyl)bicyclo[1.1.1]pentan-1-yl)methyl)-1,6-dihydropyridine-3-carboxamide], for which the pIC50 is 5.00 to 6.00.

`O=C(NCc1ccc(Br)c(F)c1)c1ccnc(Cc2ccc(Cn3ccccc3=O)cc2)c1` [Example 18, N-(4-bromo-3-fluorobenzyl)-2-(4-((2-oxopyridin-1(2H)-yl)methyl)benzyl)isonicotinamide]: the pIC50 is less than 5.00.

Turning to `Cc1cc(C#N)ccc1CNC(=O)c1ccnc(Cc2ccc(Cn3ccccc3=O)cc2)c1` [Example 19, N-(4-cyano-2-methylbenzyl)-2-(4-((2-oxopyridin-1(2H)-yl)methyl)benzyl)isonicotinamide], the pIC50 was less than 5.00.

Consider `CS(=O)(=O)c1cc(Cc2cc(C(=O)NCc3ccc4c(N)noc4c3)ccn2)ccc1Cn1ccccc1=O` [Example 20, N-((3-aminobenzo[d]isoxazol-6-yl)methyl)-2-(3-(methylsulfonyl)-4-((2-oxopyridin-1(2H)-yl)methyl)benzyl)isonicotinamide], for which the pIC50 was 6.00 to 7.00.

Take `Cc1cc(N)nc(C)c1CNC(=O)c1ccc(=O)n(Cc2ccc3ncc(Cl)cc3c2)c1` [Example 21, N-((6-amino-2,4-dimethylpyridin-3-yl)methyl)-1-((3-chloroquinolin-6-yl)methyl)-6-oxo-1,6-dihydropyridine-3-carboxamide]: the pIC50 is no less than 7.00.

For the compound `Cc1cc(N)nc(C)c1CNC(=O)c1ccnc(Cc2ccc3ncc(Cl)cc3c2)n1` [Example 24, N-((6-amino-2,4-dimethylpyridin-3-yl)methyl)-2-((3-chloroquinolin-6-yl)methyl)pyrimidine-4-carboxamide], the pIC50 is no less than 7.00.

Turning to `CS(=O)(=O)c1cc(Cc2cc(C(=O)NCc3ccc(N)nc3C(F)(F)F)ccn2)ccc1Cn1ccccc1=O` [Example 26, N-((6-amino-2-(trifluoromethyl)pyridin-3-yl)methyl)-2-(3-(methylsulfonyl)-4-((2-oxopyridin-1(2H)-yl)methyl)benzyl)isonicotinamide], the pIC50 is 5.00 to 6.00.

For the compound `CS(=O)(=O)c1cc(Cc2cc(C(=O)NCc3cnc(N)cc3C(F)(F)F)ccn2)ccc1Cn1ccccc1=O` [Example 27, N-((6-amino-4-(trifluoromethyl)pyridin-3-yl)methyl)-2-(3-(methylsulfonyl)-4-((2-oxopyridin-1(2H)-yl)methyl)benzyl)isonicotinamide], the pIC50 was 6.00 to 7.00.

`CS(=O)(=O)c1cc(Cc2cc(C(=O)NCc3n[nH]c4ccc(Cl)cc34)ccn2)ccc1Cn1ccccc1=O` [Example 30, N-((5-chloro-1H-indazol-3-yl)methyl)-2-(3-(methylsulfonyl)-4-((2-oxopyridin-1(2H)-yl)methyl)benzyl)isonicotinamide]: the pIC50 was no less than 7.00.
